Patent publication US20240132431A1, “METHOD FOR ALKYLATING ACIDIC FUNCTIONAL GROUP” (Chugai Seiyaku Kabushiki Kaisha, priority 2021, published 2024)
One block for each compound: values may come before it.

Target: T1, Bcl-2 protein (Recombinant Human Bcl-2 Protein) (Homo sapiens, UniProt P10415)
T1 construct: purchased Novus NBP2-34889
Assay: Binding evaluation of mixture library compounds to Bcl-2 using AS-MS (affinity selection mass spectrometry)
Details: for ASMS ratio (%) n = 1: replicate n = 1; for ASMS ratio (%) n = 1 / ASMS ratio (%) n = 2: ASMS Ratio(%)=(A−C)/B×100; for ASMS ratio (%) n = 2: replicate n = 2
Procedure, shortened: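 Bcl-2 binding is scored from LC/MS signal retained with protein through gel-filtration spin columns, normalised to unfiltered and protein-free controls. Incubation: 20 μM protein, […] per compound, 1 h, 23° C.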

[1] = AS-MS, mixture of 1200 compounds, Bcl-2
[2] = AS-MS on the mixture of 1200 library compounds

T1 sequence (P10415 whole entry): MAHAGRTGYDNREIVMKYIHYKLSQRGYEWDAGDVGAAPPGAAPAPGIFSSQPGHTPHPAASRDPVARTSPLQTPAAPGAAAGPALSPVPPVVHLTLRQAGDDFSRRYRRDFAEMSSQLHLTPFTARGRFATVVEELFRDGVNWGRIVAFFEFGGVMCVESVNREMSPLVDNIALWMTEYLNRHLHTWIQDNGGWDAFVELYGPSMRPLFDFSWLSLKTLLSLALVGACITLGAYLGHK

Compound: CCOc1cccc(-c2cc(CN3CCN(c4ccc(C(=O)NS(=O)(=O)C(C)(C)C)nn4)CC3)cc(OC(C)C)c2)c1 [B2L083-01, N-tert-Butylsulfonyl-6-[4-[[3-(3-ethoxyphenyl)-5-propan-2-yloxyphenyl]methyl]piperazin-1-yl]pyridazine-3-carboxamide]
ASMS ratio (%) (n = 1): 0.0% | ASMS ratio (%) (n = 2): 0.0%

Compound: CCOc1cncc(-c2ccc(C(=O)N3CCN(c4ccc(C(=O)NS(C)(=O)=O)nn4)CC3)c3ccccc23)c1 [B2I014-01, 6-[4-[4-(5-Ethoxypyridin-3-yl)naphthalene-1-carbonyl]piperazin-1-yl]-N-methylsulfonylpyridazine-3-carboxamide]
ASMS ratio (%) n = 1 (AS-MS, mixture library, Bcl-2): 1.0% | ASMS ratio (%) n = 2 (AS-MS, mixture library, Bcl-2): 2.3%

Compound: CCOc1cncc(C#Cc2ccccc2C(=O)N2CCN(c3ccc(C(=O)NCC45CC6CC(CC(C6)C4)C5)nn3)CC2)c1 [B1A008-01, N-(1-Adamantylmethyl)-6-[4-[2-[2-(5-ethoxypyridin-3-yl)ethynyl]benzoyl]piperazin-1-yl]pyridazine-3-carboxamide]
ASMS ratio (%) n = 1 [1]: 3.0% | ASMS ratio (%) n = 2 [1]: 0.0%

Compound: CCOc1cccc(-c2cc(CN3CCN(c4ccc(C(=O)NS(=O)(=O)CC56CC7CC(CC(C7)C5)C6)cc4)CC3)cc(OC(C)C)c2)c1 [B2A057-01, N-(1-Adamantylmethylsulfonyl)-4-[4-[[3-(3-ethoxyphenyl)-5-propan-2-yloxyphenyl]methyl]piperazin-1-yl]benzamide]
ASMS ratio (%) n = 1 (AS-MS, mixture library, Bcl-2): −4.8% | ASMS ratio (%) n = 2 (AS-MS, mixture library, Bcl-2): −5.3%

Compound: CCOc1cncc(C#Cc2ccccc2CN2CCN(c3ccc(C(=O)N(CC)CC)nn3)CC2)c1 [B4J096-01]
ASMS ratio (%) n = 2 (AS-MS, mixture library, Bcl-2): 0.0%

Compound: CCOc1cncc(-c2cc(CN3CCN(c4ccc(C(=O)Nc5ccc(OC)cc5)cc4)CC3)cc(OC(C)C)c2)c1 [B1O058-01]
ASMS ratio (%) n = 1 [2]: −3.5% | ASMS ratio (%) n = 2 [2]: 4.4%

Compound: CCOc1cccc(-c2ccccc2CCC(=O)N2CCN(c3ccc(C(=O)N(CC)CC)cc3)CC2)c1 [B4J033-01, 4-[4-[3-[2-(3-Ethoxyphenyl)phenyl]propanoyl]piperazin-1-yl]-N,N-diethylbenzamide]
ASMS ratio (%) n = 1 [2]: 0.0% | ASMS ratio (%) n = 2 [2]: −0.9%

Compound: CCOc1cncc(-c2csc(C(=O)N3CCN(c4ccc(C(=O)N(CC)CC)cc4)CC3)c2)c1 [B4J024-01, 4-[4-[4-(5-Ethoxypyridin-3-yl)thiophene-2-carbonyl]piperazin-1-yl]-N,N-diethylbenzamide]
ASMS ratio (%) n = 1 [2]: −0.6% | ASMS ratio (%) n = 2 [2]: 6.8%

Compound: CCOc1cncc(-c2ccc(C(C)N3CCN(c4ccc(C(=O)NS(C)(=O)=O)cc4)CC3)cc2)c1 (centres unmarked) [B2I098-01, 4-[4-[1-[4-(5-Ethoxypyridin-3-yl)phenyl]ethyl]piperazin-1-yl]-N-methylsulfonylbenzamide]
ASMS ratio (%) (n = 1): 0.0% | ASMS ratio (%) (n = 2): 0.0%

Compound: CCOc1cncc(C#Cc2cncc(C(=O)N3CCN(c4ccc(C(=O)Nc5ccc(OC)cc5)cc4)CC3)c2)c1 [B1O032-01, 4-[4-[5-[2-(5-Ethoxypyridin-3-yl)ethynyl]pyridine-3-carbonyl]piperazin-1-yl]-N-(4-methoxyphenyl)benzamide]
ASMS ratio (%) n = 1 [2]: 4.5% | ASMS ratio (%) n = 2 [2]: 0.9%

Compound: CCOc1cccc(-c2ccc(C(C)N3CCN(c4ccc(C(=O)NS(C)(=O)=O)cc4)CC3)c(F)c2)c1 (centres unmarked) [B2I099-01, 4-[4-[1-[4-(3-Ethoxyphenyl)-2-fluorophenyl]ethyl]piperazin-1-yl]-N-methylsulfonylbenzamide]
ASMS ratio (%) (n = 2): 0.0%

Compound: CCOc1cncc(-c2cc(CN3CCN(c4ccc(C(=O)N(CC)CC)cc4)CC3)cc(C(F)(F)F)c2)c1 [B4J062-01, 4-[4-[[3-(5-Ethoxypyridin-3-yl)-5-(trifluoromethyl)phenyl]methyl]piperazin-1-yl]-N,N-diethylbenzamide]
ASMS ratio (%) n = 1 (AS-MS, mixture library, Bcl-2): 0.0% | ASMS ratio (%) n = 2 (AS-MS, mixture library, Bcl-2): 0.0%

Compound: 4-[4-[[4-(3-Ethoxyphenyl)naphthalen-1-yl]methyl]piperazin-1-yl]-N-propylbenzamide [B1M044-01]
ASMS ratio (%) n = 1 [1]: 1.0% | ASMS ratio (%) n = 2 [1]: 1.1%

Results, then the compound that gave them:

ASMS ratio (%) n = 1 (AS-MS, mixture library, Bcl-2): 16.5% | ASMS ratio (%) n = 2 (AS-MS, mixture library, Bcl-2): 0.5%
Compound: CCOc1cccc(C#Cc2cncc(C(=O)N3CCN(c4ccc(C(=O)NS(=O)(=O)c5ccc(NCCSc6ccccc6)c([N+](=O)[O-])c5)nn4)CC3)c2)c1 [B2Q009-01, 6-[4-[5-[2-(3-Ethoxyphenyl)ethynyl]pyridine-3-carbonyl]piperazin-1-yl]-N-[3-nitro-4-(2-phenylsulfanylethylamino)phenyl]sulfonylpyridazine-3-carboxamide]

ASMS ratio (%) n = 1 (AS-MS, mixture library, Bcl-2): 10.1% | ASMS ratio (%) n = 2 (AS-MS, mixture library, Bcl-2): −0.9%
Compound: CCOc1cncc(C#Cc2cc(C(=O)N3CCN(c4ccc(C(=O)NS(=O)(=O)CC56CC7CC(CC(C7)C5)C6)cc4)CC3)cc(C(F)(F)F)c2)c1 [B2A042-01, N-(1-Adamantylmethylsulfonyl)-4-[4-[3-[2-(5-ethoxypyridin-3-yl)ethynyl]-5-(trifluoromethyl)benzoyl]piperazin-1-yl]benzamide]

ASMS ratio (%) n = 1 [2]: 1.3% | ASMS ratio (%) n = 2 [2]: 4.6%
Compound: CCOc1cncc(-c2cc(CN3CCN(c4ccc(C(=O)Nc5ccc(OC)cc5)cc4)CC3)cc(C(F)(F)F)c2)c1 [B1O062-01, 4-[4-[[3-(5-Ethoxypyridin-3-yl)-5-(trifluoromethyl)phenyl]methyl]piperazin-1-yl]-N-(4-methoxyphenyl)benzamide]

ASMS ratio (%) n = 1 (AS-MS, mixture library, Bcl-2): 12.4% | ASMS ratio (%) n = 2 (AS-MS, mixture library, Bcl-2): −13.4%
Compound: CCOc1cccc(-c2cnn(-c3cc(C(=O)N4CCN(c5ccc(C(=O)NS(=O)(=O)c6ccc(NCCSc7ccccc7)c([N+](=O)[O-])c6)cc5)CC4)cc(C(F)(F)F)c3)c2)c1 [B2Q043-01, 4-[4-[3-[4-(3-Ethoxyphenyl)pyrazol-1-yl]-5-(trifluoromethyl)benzoyl]piperazin-1-yl]-N-[3-nitro-4-(2-phenylsulfanylethylamino)phenyl]sulfonylbenzamide]

ASMS ratio (%) (n = 1): 0.0% | ASMS ratio (%) (n = 2): −1.2%
Compound: CCOc1cncc(-c2csc(C(=O)N3CCN(c4ccc(C(=O)NS(=O)(=O)c5ccc(NCCSc6ccccc6)c(C(F)(F)F)c5)cc4)CC3)c2)c1 [B2R024-01, 4-[4-[4-(5-Ethoxypyridin-3-yl)thiophene-2-carbonyl]piperazin-1-yl]-N-[4-(2-phenylsulfanylethylamino)-3-(trifluoromethyl)phenyl]sulfonylbenzamide]

ASMS ratio (%) n = 1 (AS-MS, mixture library, Bcl-2): 13.8% | ASMS ratio (%) n = 2 (AS-MS, mixture library, Bcl-2): 9.1%
Compound: CCOc1cncc(-c2cc(CN3CCN(c4ccc(C(=O)NS(=O)(=O)c5ccc(NCCSc6ccccc6)c([N+](=O)[O-])c5)nn4)CC3)cc(C(F)(F)F)c2)c1 [B2Q088-01, 6-[4-[[3-(5-Ethoxypyridin-3-yl)-5-(trifluoromethyl)phenyl]methyl]piperazin-1-yl]-N-[3-nitro-4-(2-phenylsulfanylethylamino)phenyl]sulfonylpyridazine-3-carboxamide]

ASMS ratio (%) n = 1 (AS-MS, mixture library, Bcl-2): −4.8% | ASMS ratio (%) n = 2 (AS-MS, mixture library, Bcl-2): 0.6%
Compound: CCOc1cccc(-c2cc(CN3CCN(c4ccc(C(=O)NS(=O)(=O)c5ccc(NCCSc6ccccc6)c([N+](=O)[O-])c5)nn4)CC3)cc(OCC)c2)c1 [B2Q081-01, 6-[4-[[3-Ethoxy-5-(3-ethoxyphenyl)phenyl]methyl]piperazin-1-yl]-N-[3-nitro-4-(2-phenylsulfanylethylamino)phenyl]sulfonylpyridazine-3-carboxamide]
